Assay results published in patent publication US20050223431A1, “Methods of modulating glucosinolate production in plants” (The Arizona Board of Regents on Behalf of the University of …, priority 2000, published 2005).

Tests used:
[1] = target: T1, CYP83B1 (Arabidopsis thaliana, UniProt O65782); assay: Reconstitution with oximes, turnover numbers by GC-MS; assay type: biochemical; set-up: made in house; host or cells: yeast WAT11 cells, pYeDP60 vector; microsomes; settings: CYP83B1 0.5 μM, 1 mM substrate, β-mercaptoethanol thiol donor, 20 min at 28° C.
T1 sequence (O65782 1-499): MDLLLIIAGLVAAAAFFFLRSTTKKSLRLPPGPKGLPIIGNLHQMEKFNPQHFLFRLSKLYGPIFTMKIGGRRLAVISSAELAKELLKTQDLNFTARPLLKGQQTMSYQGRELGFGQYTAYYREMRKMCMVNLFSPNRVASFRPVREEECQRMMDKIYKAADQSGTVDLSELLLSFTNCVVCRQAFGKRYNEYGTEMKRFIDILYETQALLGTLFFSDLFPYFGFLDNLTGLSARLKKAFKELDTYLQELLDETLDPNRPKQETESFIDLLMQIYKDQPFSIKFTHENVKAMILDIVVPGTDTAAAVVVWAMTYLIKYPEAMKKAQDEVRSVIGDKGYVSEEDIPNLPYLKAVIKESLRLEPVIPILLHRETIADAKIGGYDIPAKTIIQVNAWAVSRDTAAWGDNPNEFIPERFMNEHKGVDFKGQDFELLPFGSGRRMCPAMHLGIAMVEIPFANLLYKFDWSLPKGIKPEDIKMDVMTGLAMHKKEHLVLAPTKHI
Experimental: (§1) Turnover numbers were calculated based on the relative areas under the substrate and product peaks. Silylated substrates and products were identified by their fragmentation pattern in both electron impact mode and chemical ionization mode.
(§2) Reconstitution experiments were also conducted to compare the ability of CYP83A1 and CYP83B1 to metabolize other oximes. The putative substrates tested were p-hydroxyphenylacetaldoxime derived from tyrosine and phenylacetaldoxime derived from phenylalanine. In all studies, β-mercaptoethanol was the thiol donor. […] Conversely, the turnover of p-hydroxyphenylacetaldoxime was higher using CYP83A1 compared to CYP83B 1. Phenylacetaldoxime was identified as a substrate for CYP83A1 as well as for CYP83B1 but the turnover numbers were low (Table 1).

[2] = target: T2, CYP83A1 (Arabidopsis thaliana, UniProt P48421); assay: as above; assay type: biochemical; set-up: made in house; host or cells: yeast WAT11 cells, pYeDP60 vector; microsomes; settings: CYP83A1 0.5 μM, 1 mM substrate, β-mercaptoethanol thiol donor, 20 min at 28° C.
T2 sequence (P48421 1-502): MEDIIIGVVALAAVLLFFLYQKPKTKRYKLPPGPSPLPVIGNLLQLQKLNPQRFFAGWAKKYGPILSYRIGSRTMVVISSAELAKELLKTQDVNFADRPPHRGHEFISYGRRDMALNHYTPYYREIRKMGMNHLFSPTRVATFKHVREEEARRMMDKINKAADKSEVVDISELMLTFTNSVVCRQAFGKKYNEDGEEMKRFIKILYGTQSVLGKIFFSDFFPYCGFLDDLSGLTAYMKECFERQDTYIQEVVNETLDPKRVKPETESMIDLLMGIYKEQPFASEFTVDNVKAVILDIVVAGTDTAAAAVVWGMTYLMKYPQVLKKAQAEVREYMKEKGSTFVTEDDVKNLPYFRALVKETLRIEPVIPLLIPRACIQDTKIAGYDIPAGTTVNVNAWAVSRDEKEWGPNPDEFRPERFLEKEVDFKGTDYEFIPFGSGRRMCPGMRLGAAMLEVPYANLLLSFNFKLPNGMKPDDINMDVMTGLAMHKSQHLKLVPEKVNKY
Experimental: as §1, §2

[3] = target: T1, CYP83B1; assay: biochemical; settings: for Relative affinity for ligand binding, from amplitudes of type II spectra / Type II spectrum (ligand binding to active site): CYP83B1, 200 μM ligand
Description: (§3) FIG. 6 is a spectral characterization of CYP83A1 and CYP83B1. […] 1) tryptamine, 2) β-phenylethylamine, 3) tyramine, 4) n-octylamine, 5) 5-OH-tryptamine, 6) 3-OH-tyramine, B) baseline.
(§4) To compensate for ligand absorbance, the experimental data were fitted to a hyperbolic curve using the equation A=Amax*X/(Ks+X)+C*X, where A is the amplitude of the spectra, X the concentration of ligand, and C the contribution from ligand absorbance. The computed regression curve is shown as well as the experimental data points.
(§5) Microsomes from yeast WAT11 cells expressing the CYP83A1 and CYP83B1 cDNA using the pYeDP60 vector were isolated and the amount of functional enzyme quantified essentially according to Pompon et al. (1996) Methods Enzymol. 272:51-64. […] 13:101-111 and references therein. Vmax and Km were determined as previously described using 2.2 nM of CYP83A1 or CYP83B1 and 50 mM L-cysteine as thiol donor (Bak et al. (2001) Plant Cell. 13:101-111). […] Vmax, Km, and Ks were calculated using SigmaPlot 5.0 (SPSS Inc.). For analysis of CYP83B1 activity in the presence or absence of thiol donors, recombinant CYP83B1 was reconstituted and analyzed as previously described (Bak et al. (2001) Plant Cell. 13:101-111).
(§6) To characterize the topology of the active sites of […] and CYP83B 1, we have taken advantage of the ability of nitrogen-containing ligands like primary amines to produce type II spectra with cytochrome P450 enzymes by binding to the active site bringing the electron lone pairs of the amine group in close vicinity to the heme iron (Jefcoate C. R. (1978) Methods Enzymol 27:258-279). This gives rise to a characteristic spectrum with a trough around 390 nm and a peak around 425 nm.
(§7) By titrating the amplitude of the type II difference spectra with increasing concentrations of ligand, Ks values were determined for tryptamine and β-phenylethylamine (FIG. 7).

[4] = target: T2, CYP83A1; assay: biochemical; settings: for Relative affinity for ligand binding, from amplitudes of type II spectra / Type II spectrum (ligand binding to active site): CYP83A1, 200 μM ligand
Description: as §3, §4, §5, §6, §7

[5] = target: T1, CYP83B1; set-up: made in house; host or cells: yeast WAT11 cells, pYeDP60 vector; microsomes; settings: cited from earlier work
[6] = tested on: ON=CCc1c[nH]c2ccccc12; assay: cells, lysate or membranes named; settings: other: CYP83A1 in yeast microsomes, 2.2 nM enzyme, 50 mM L-cysteine as thiol donor
[7] = target: T1, CYP83B1; assay: Kinetics of indole-3-acetaldoxime metabolism by recombinant enzyme in yeast microsomes
Experimental: Computed regression curves as well as the experimental data points are shown. The correlation coefficients (R^2) for CYP83B1 and CYP83A1 regression analyses are 0.985 and 0.999, respectively.
as §5

[8] = substrate: ON=CCc1c[nH]c2ccccc12; assay: cells, lysate or membranes named; settings: other: CYP83B1 in yeast microsomes, 2.2 nM enzyme, 50 mM L-cysteine as thiol donor

ON=CCc1ccc(O)cc1 [p-hydroxyphenylacetaldoxime]
Turnover p-hydroxyphenylacetaldoxime [1]: 9.8 min⁻¹
Turnover p-hydroxyphenylacetaldoxime [2]: 25 min⁻¹

CCCCCCCCN [n-octylamine]
Relative affinity for ligand binding, from amplitudes of type II spectra [3]: tryptamine >>β-phenylethylanine>n-octylamine>tyramine
Type II spectrum (ligand binding to active site) [3]: type II spectra were observed
Relative affinity for ligand binding, from amplitudes of type II spectra [4]: n-octylamine>>α-phenylethylamine=tryptarine>tyramine
Type II spectrum (ligand binding to active site) [4]: type II spectra were observed

N#CCc1c[nH]c2ccccc12 [Indole-3-acetonitrile]
Type II spectrum (ligand binding to active site) [3]: did not produce a type II spectrum
Type II spectrum (ligand binding to active site) [4]: did not produce a type II spectrum

NCCc1ccccc1 [β-phenylethylamine]
Kd [3]: 540 ± 180 µM
Relative affinity for ligand binding, from amplitudes of type II spectra [3]: tryptamine >>β-phenylethylanine>n-octylamine>tyramine
Type II spectrum (ligand binding to active site) [3]: type II spectra were observed
Kd [4]: 390 ± 70 µM
Relative affinity for ligand binding, from amplitudes of type II spectra [4]: n-octylamine>>α-phenylethylamine=tryptarine>tyramine
Type II spectrum (ligand binding to active site) [4]: type II spectra were observed

NCCc1c[nH]c2ccccc12 [tryptamine]
Inhibition of metabolism of indole-3-acetaldoxime [5]: inhibits metabolism of indole-3-acetaldoxime
Kd [3]: 18 ± 5 µM
Relative affinity for ligand binding, from amplitudes of type II spectra [3]: tryptamine >>β-phenylethylanine>n-octylamine>tyramine
Fold stronger binding to CYP83B1 compared to CYP83A1 ([3]; from Ks values): 13 fold
Fold stronger ligand for CYP83B1 compared to β-phenylethylamine ([3]; from Ks values): 30 fold
Kd [4]: 240 ± 180 µM
Relative affinity for ligand binding, from amplitudes of type II spectra [4]: n-octylamine>>α-phenylethylamine=tryptarine>tyramine

ON=CCc1ccccc1 [phenylethylacetaldoxime, phenylacetaldoxime]
Turnover phenylethylacetaldoxime [1]: 15 min⁻¹
Turnover phenylethylacetaldoxime [2]: 7.2 min⁻¹

CYP83A1 (Arabidopsis thaliana)
Km [6]: 150 ± 15 µM
kcat [6]: 2.33 ± 0.167 s⁻¹

NCCc1c[nH]c2ccc(O)cc12 [5-OH-tryptamine]
Type II spectrum (ligand binding to active site) [3]: abolished binding
Type II spectrum (ligand binding to active site) [4]: abolished binding

ON=CCc1c[nH]c2ccccc12 [indole-3-acetaldoxime]
Fold higher catalytic efficiency (Vmax/Km), CYP83B1 compared to CYP83A1 ([7]; indole-3-acetaldoxime as substrate): 20 fold
Fold difference in Km / affinity, CYP83B1 versus CYP83A1 ([7]; indole-3-acetaldoxime, higher affinity (lower Km) for CYP83B1): 50 fold
Turnover, indole-3-acetaldoxime [1]: 26 min⁻¹
Turnover, indole-3-acetaldoxime [2]: 10 min⁻¹

B1: CYP83B1 (Arabidopsis thaliana) (protein)
chain: MDLLLIIAGLVAAAAFFFLRSTTKKSLRLPPGPKGLPIIGNLHQMEKFNPQHFLFRLSKLYGPIFTMKIGGRRLAVISSAELAKELLKTQDLNFTARPLLKGQQTMSYQGRELGFGQYTAYYREMRKMCMVNLFSPNRVASFRPVREEECQRMMDKIYKAADQSGTVDLSELLLSFTNCVVCRQAFGKRYNEYGTEMKRFIDILYETQALLGTLFFSDLFPYFGFLDNLTGLSARLKKAFKELDTYLQELLDETLDPNRPKQETESFIDLLMQIYKDQPFSIKFTHENVKAMILDIVVPGTDTAAAVVVWAMTYLIKYPEAMKKAQDEVRSVIGDKGYVSEEDIPNLPYLKAVIKESLRLEPVIPILLHRETIADAKIGGYDIPAKTIIQVNAWAVSRDTAAWGDNPNEFIPERFMNEHKGVDFKGQDFELLPFGSGRRMCPAMHLGIAMVEIPFANLLYKFDWSLPKGIKPEDIKMDVMTGLAMHKKEHLVLAPTKHI
Km [8]: 3.1 ± 0.4 µM
